Literature values as cited in PubChem BioAssay AID1259409 (Chemical Carcinogenesis Research Information System (CCRIS), 2018).

Tested on: rodent chemically induced tumor inhibition, incidence and multiplicity
Assay: CCRIS tumor inhibitor studies
Details: for outcome: Carcinogen: 7,12-Dimethylbenz[a]anthracene, Species: Mouse

SMILES: CN=C(NC#N)NCCSCc1nc[nH]c1C
- tumour outcome (control, treated, inhibition, significance) (Carcinogen: 7,12-DIMETHYLBENZ[A]ANTHRACENE, 57-97-6, Dose [Inhibitor]: 0, 10 MG A WK IN DRINKING WATER BEGINNING 1 WK POST CARCINOGEN DOSE AND CONTINUING FOR DURATION OF STUDY (STUDY DURATION, Route [Inhibitor]: ORAL, Species: MOUSE, Strain/Sex: SENCAR/MALE, Target Tissue: Type of Lesion: SKIN: PAPILLOMA, Dose [Carcinogen]: 100 NMOL IN 200 µL ACETONE ONCE, Promoter: 12-O-TETRADECANOYLPHORBOL-13-ACETATE, 16561-29-8): 95%, 100%, -5%, not calculated
- tumour outcome (control, treated, inhibition, significance) (Carcinogen: N-METHYL-N'-NITRO-N-NITROSOGUANIDINE, 70-25-7, Dose [Inhibitor]: 10 MG/KG BW IN DEPOT FORM 1/2 D BEGINNING 1 WK POST LAST CARCINOGEN DOSE FOR DURATION OF STUDY (STUDY DURATION: 52 WK), Route [Inhibitor]: SUBCUTANEOUS, Species: RAT, Strain/Sex: WISTAR/MALE, Target Tissue: Type of Lesion: STOMACH: ADENOCARCINOMA, Dose [Carcinogen]: 50 UG/ML IN DRINKING WATER FOR 25 WK, Promoter: NONE USED): 12/19 (63%), 13/19 (68%), -8%, not calculated
- tumour outcome (control, treated, inhibition, significance) (Carcinogen: N-METHYL-N'-NITRO-N-NITROSOGUANIDINE, 70-25-7, Dose [Inhibitor]: 20 MG/KG BW IN DEPOT FORM 1/2 D BEGINNING 1 WK POST LAST CARCINOGEN DOSE FOR DURATION OF STUDY (STUDY DURATION: 52 WK), Route [Inhibitor]: SUBCUTANEOUS, Species: RAT, Strain/Sex: WISTAR/MALE, Target Tissue: Type of Lesion: STOMACH: ADENOCARCINOMA, Dose [Carcinogen]: 50 UG/ML IN DRINKING WATER FOR 25 WK, Promoter: NONE USED): 12/19 (63%), 11/19 (58%), 8%, not calculated

SMILES: CC(=O)Oc1c(C)c(C)c2c(c1C)CCC(C)(CCCC(C)CCCC(C)CCCC(C)C)O2 (stereo not drawn)
- tumour outcome (control, treated, inhibition, significance) (Carcinogen: 7,12-DIMETHYLBENZ[A]ANTHRACENE, 57-97-6, Dose [Inhibitor]: 1000 MG/KG IN 20% CORN OIL DIET DAILY STARTING 2 WK BEFORE CARCINOGEN TREATMENT AND CONTINUING FOR DURATION OF STUDY (ST, Route [Inhibitor]: ORAL, Species: RAT, Strain/Sex: SPRAGUE-DAWLEY/FEMALE, Target Tissue: Type of Lesion: MAMMARY GLAND: ADENOCARCINOMA, Dose [Carcinogen]: 10 MG ONCE AT AGE 50 D): 28/30 (93%), 27/30 (90%), 3%, not significant
- tumour outcome (control, treated, inhibition, significance) (Carcinogen: UV-B IRRADIATION, Dose [Inhibitor]: 25, 100 UG/KG IN DIET FOR DURATION OF STUDY BEGINNING 3 WK PRIOR TO IRRADIATION (STUDY DURATION: 40 WK), Route [Inhibitor]: ORAL, Species: MOUSE, Strain/Sex: C3H/HEN/FEMALE, Target Tissue: Type of Lesion: SKIN: TUMOR, Dose [Carcinogen]: 6.4 J/M2/SEC 30 MIN/D 5 D/WK FOR 13 WK , IRRADIATION DISCONTINUED FOR 3 WK DUE TO TOXICITY THEN IT WAS RESUMED FOR 2 WK, Promoter: NONE USED): 67%, 46%, 31%, not calculated
- tumour outcome (control, treated, inhibition, significance) (Carcinogen: UV-B IRRADIATION, Dose [Inhibitor]: 25, 200 UG/KG IN DIET FOR DURATION OF STUDY BEGINNING 3 WK PRIOR TO IRRADIATION (STUDY DURATION: 40 WK), Route [Inhibitor]: ORAL, Species: MOUSE, Strain/Sex: C3H/HEN/FEMALE, Target Tissue: Type of Lesion: SKIN: TUMOR, Dose [Carcinogen]: 6.4 J/M2/SEC 30 MIN/D 5 D/WK FOR 13 WK, IRRADIATION DISCONTINUED FOR 3 WK DUE TO TOXICITY THEN IT WAS RESUMED FOR 2 WK, Promoter: NONE USED): 67%, 19%, 72%, not calculated

SMILES: O=C(CC(=O)c1ccccc1)c1ccccc1
- tumour outcome (control, treated, inhibition, significance) (Carcinogen: 7,12-DIMETHYLBENZ[A]ANTHRACENE, 57-97-6, Dose [Inhibitor]: 0, 1% IN DIET FOR 22 WK BEGINNING 2 WK PRIOR TO CARCINOGEN DOSE (STUDY DURATION: 22 WK), Route [Inhibitor]: ORAL, Species: MOUSE, Strain/Sex: SENCAR/FEMALE, Target Tissue: Type of Lesion: LYMPHATIC SYSTEM: LYMPHOMA OR LEUKEMIA, Dose [Carcinogen]: 1 MG IN 0.1 ML CORN OIL 1/WK FOR 5 WK, Promoter: NONE USED): 45%, 0%, 100%, p<0.05
- tumour outcome (control, treated, inhibition, significance) (Carcinogen: 7,12-DIMETHYLBENZ[A]ANTHRACENE, 57-97-6, Dose [Inhibitor]: 0, 1% IN DIET FOR 22 WK BEGINNING 2 WK PRIOR TO CARCINOGEN DOSE (STUDY DURATION: 22WK), Route [Inhibitor]: ORAL, Species: MOUSE, Strain/Sex: SENCAR/FEMALE, Target Tissue: Type of Lesion: MAMMARY GLAND: TUMOR, Dose [Carcinogen]: 1 MG IN 0.1 ML CORN OIL 1/WK FOR 5 WK, Promoter: NONE USED): 68%, 2%, 97%, p<0.05
- tumour outcome (control, treated, inhibition, significance) (Carcinogen: 7,12-DIMETHYLBENZ[A]ANTHRACENE, 57-97-6, Dose [Inhibitor]: 0, 1% IN DIET FOR 22 WK BEGINNING 2 WK PRIOR TO CARCINOGEN DOSE (STUDY DURATION: 22WK), Route [Inhibitor]: ORAL, Species: MOUSE, Strain/Sex: SENCAR/FEMALE, Target Tissue: Type of Lesion: OVARY:TUMOR, Dose [Carcinogen]: 1 MG IN 0.1 ML CORN OIL 1/WK FOR 5 WK, Promoter: NONE USED): 20%, 0%, 100%, p<0.05
- outcome (57-97-6, Dose [Inhibitor]: 0, 10 umol 3x/wk for 10 wk, Route [Inhibitor]: Dermal, Strain/Sex: CD-1/Female, Target Tissue: Type of Lesion: Skin: tumor, Dose [Carcinogen]: 200 nmol in 200 ul acetone, once, study duration 11 wk, Promoter: Mirex, 2385-85-5): 37%, 15%, not significant
- outcome (57-97-6, Dose [Inhibitor]: 0, 10 umol 3x/wk for 14 wk, Route [Inhibitor]: Dermal, Strain/Sex: CD-1/Female, Target Tissue: Type of Lesion: Skin: tumor, Dose [Carcinogen]: 200 nmol in 200 ul acetone, once, study duration 15 wk, Promoter: Mirex, 2385-85-5): 60%, 40%, not significant
- outcome (57-97-6, Dose [Inhibitor]: 0, 10 umol 3x/wk for 18 wk, Route [Inhibitor]: Dermal, Strain/Sex: CD-1/Female, Target Tissue: Type of Lesion: Skin: tumor, Dose [Carcinogen]: 200 nmol in 200 ul acetone, once, study duration 19 wk, Promoter: Mirex, 2385-85-5): 80%, 70%, not significant
- outcome (57-97-6, Dose [Inhibitor]: 0, 1% in diet for 22 wk beginning 2 wk prior to carcinogen dose (study duration: 22wk), Route [Inhibitor]: Oral, Strain/Sex: Sencar/Female, Target Tissue: Type of Lesion: Mammary Gland: Tumor, Dose [Carcinogen]: 1 mg in 0.1 ml corn oil 1/wk for 5 wk, Promoter: None): 3%, 0%, 100% at 3 wk; 38%, 0%, 100% at 9 wk; 55%, 0% at 13 wk; 68%, 3%, 96% at 2
